Source: the supplement of paper PMC4862054

Test system: CAL-120
Assay: normalised response (% of control), CellTiter-Glo; higher = more viable cells (100 = DMSO, 0 = benzethonium chloride kill control)
Settings: incubation time: 72 h
Method: (§1)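 DSRT, 72 h incubation, CellTox Green / CellTiter-Glo readout. Signal is normalised to DMSO and benzethonium chloride controls. Value is the normalised response at dose 3.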

Compound	normalised response [%]
COC(=O)C[C@](O)(CCCC(C)(C)O)C(=O)O[C@@H]1C(OC)=C[C@]23CCCN2CCc2cc4c(cc2[C@H]13)OCO4 [Omacetaxine] (100 nM)	59
Cn1cnc2c(F)c(Nc3ccc(Br)cc3F)c(C(=O)NOCCO)cc21 [MEK-162] (10 nM)	97.9
C[C@@H]1CCN(C(=O)CC#N)C[C@@H]1N(C)c1ncnc2[nH]ccc12 [Tofacitinib] (50 nM)	99.8
COc1cccc2c1C(=O)c1c(O)c3c(c(O)c1C2=O)C[C@@](O)(C(C)=O)C[C@@H]3O[C@H]1C[C@H](N)[C@H](O)[C@H](C)O1 [Daunorubicin] (10 nM)	103

Test system: MDA-MB-453
Assay: as above
Settings: incubation time: 72 h
Method: as §1

Compound	normalised response [%]
CN1CCN(c2ccc3nc(-c4c(N)c5c(F)cccc5[nH]c4=O)[nH]c3c2)CC1 [Dovitinib] (100 nM)	100
COc1ccc(C2=N[C@@H](c3ccc(Cl)cc3)[C@@H](c3ccc(Cl)cc3)N2C(=O)N2CCNC(=O)C2)c(OC(C)C)c1 [Nutlin-3] (100 nM)	108
FC(F)c1nc2ccccc2n1-c1nc(N2CCOCC2)nc(N2CCOCC2)n1 [ZSTK474] (100 nM)	86.8
CS(=O)(=O)OCCCCOS(C)(=O)=O [Busulfan] (1000 nM)	111
COC(=O)C[C@](O)(CCCC(C)(C)O)C(=O)O[C@@H]1C(OC)=C[C@]23CCCN2CCc2cc4c(cc2[C@H]13)OCO4 [Omacetaxine] (100 nM)	56.4
Cn1cnc2c(F)c(Nc3ccc(Br)cc3F)c(C(=O)NOCCO)cc21 [MEK-162] (10 nM)	105
C[C@@H]1CCN(C(=O)CC#N)C[C@@H]1N(C)c1ncnc2[nH]ccc12 [Tofacitinib] (50 nM)	102
COc1cccc2c1C(=O)c1c(O)c3c(c(O)c1C2=O)C[C@@](O)(C(C)=O)C[C@@H]3O[C@H]1C[C@H](N)[C@H](O)[C@H](C)O1 [Daunorubicin] (10 nM)	110

Test system: CAL-51
Assay: as above
Settings: incubation time: 72 h
Method: as §1

Compound	normalised response [%]
CN1CCN(c2ccc3nc(-c4c(N)c5c(F)cccc5[nH]c4=O)[nH]c3c2)CC1 [Dovitinib] (100 nM)	107
COc1ccc(C2=N[C@@H](c3ccc(Cl)cc3)[C@@H](c3ccc(Cl)cc3)N2C(=O)N2CCNC(=O)C2)c(OC(C)C)c1 [Nutlin-3] (100 nM)	64
FC(F)c1nc2ccccc2n1-c1nc(N2CCOCC2)nc(N2CCOCC2)n1 [ZSTK474] (100 nM)	92.6
CS(=O)(=O)OCCCCOS(C)(=O)=O [Busulfan] (1000 nM)	90.4
COC(=O)C[C@](O)(CCCC(C)(C)O)C(=O)O[C@@H]1C(OC)=C[C@]23CCCN2CCc2cc4c(cc2[C@H]13)OCO4 [Omacetaxine] (100 nM)	19.9
Cn1cnc2c(F)c(Nc3ccc(Br)cc3F)c(C(=O)NOCCO)cc21 [MEK-162] (10 nM)	114
C[C@@H]1CCN(C(=O)CC#N)C[C@@H]1N(C)c1ncnc2[nH]ccc12 [Tofacitinib] (50 nM)	88.1
COc1cccc2c1C(=O)c1c(O)c3c(c(O)c1C2=O)C[C@@](O)(C(C)=O)C[C@@H]3O[C@H]1C[C@H](N)[C@H](O)[C@H](C)O1 [Daunorubicin] (10 nM)	87.2

Test system: CAL-85-1
Assay: as above
Settings: incubation time: 72 h
Method: as §1

Compound	normalised response [%]
CN1CCN(c2ccc3nc(-c4c(N)c5c(F)cccc5[nH]c4=O)[nH]c3c2)CC1 [Dovitinib] (100 nM)	94.7
COc1ccc(C2=N[C@@H](c3ccc(Cl)cc3)[C@@H](c3ccc(Cl)cc3)N2C(=O)N2CCNC(=O)C2)c(OC(C)C)c1 [Nutlin-3] (100 nM)	92.4
FC(F)c1nc2ccccc2n1-c1nc(N2CCOCC2)nc(N2CCOCC2)n1 [ZSTK474] (100 nM)	99
CS(=O)(=O)OCCCCOS(C)(=O)=O [Busulfan] (1000 nM)	104
COC(=O)C[C@](O)(CCCC(C)(C)O)C(=O)O[C@@H]1C(OC)=C[C@]23CCCN2CCc2cc4c(cc2[C@H]13)OCO4 [Omacetaxine] (100 nM)	6.28
Cn1cnc2c(F)c(Nc3ccc(Br)cc3F)c(C(=O)NOCCO)cc21 [MEK-162] (10 nM)	95.2
C[C@@H]1CCN(C(=O)CC#N)C[C@@H]1N(C)c1ncnc2[nH]ccc12 [Tofacitinib] (50 nM)	109
COc1cccc2c1C(=O)c1c(O)c3c(c(O)c1C2=O)C[C@@](O)(C(C)=O)C[C@@H]3O[C@H]1C[C@H](N)[C@H](O)[C@H](C)O1 [Daunorubicin] (10 nM)	100

Test system: MDA-MB-468
Assay: as above
Settings: incubation time: 72 h
Method: as §1

Compound	normalised response [%]
CN1CCN(c2ccc3nc(-c4c(N)c5c(F)cccc5[nH]c4=O)[nH]c3c2)CC1 [Dovitinib] (100 nM)	97.3
COc1ccc(C2=N[C@@H](c3ccc(Cl)cc3)[C@@H](c3ccc(Cl)cc3)N2C(=O)N2CCNC(=O)C2)c(OC(C)C)c1 [Nutlin-3] (100 nM)	100
FC(F)c1nc2ccccc2n1-c1nc(N2CCOCC2)nc(N2CCOCC2)n1 [ZSTK474] (100 nM)	96.9
CS(=O)(=O)OCCCCOS(C)(=O)=O [Busulfan] (1000 nM)	97.2
COC(=O)C[C@](O)(CCCC(C)(C)O)C(=O)O[C@@H]1C(OC)=C[C@]23CCCN2CCc2cc4c(cc2[C@H]13)OCO4 [Omacetaxine] (100 nM)	15.3
Cn1cnc2c(F)c(Nc3ccc(Br)cc3F)c(C(=O)NOCCO)cc21 [MEK-162] (10 nM)	93
C[C@@H]1CCN(C(=O)CC#N)C[C@@H]1N(C)c1ncnc2[nH]ccc12 [Tofacitinib] (50 nM)	110
COc1cccc2c1C(=O)c1c(O)c3c(c(O)c1C2=O)C[C@@](O)(C(C)=O)C[C@@H]3O[C@H]1C[C@H](N)[C@H](O)[C@H](C)O1 [Daunorubicin] (10 nM)	84.2

Test system: HDQ-P1
Assay: as above
Settings: incubation time: 72 h
Method: as §1

Compound	normalised response [%]
CN1CCN(c2ccc3nc(-c4c(N)c5c(F)cccc5[nH]c4=O)[nH]c3c2)CC1 [Dovitinib] (100 nM)	97.3
COc1ccc(C2=N[C@@H](c3ccc(Cl)cc3)[C@@H](c3ccc(Cl)cc3)N2C(=O)N2CCNC(=O)C2)c(OC(C)C)c1 [Nutlin-3] (100 nM)	99.9
FC(F)c1nc2ccccc2n1-c1nc(N2CCOCC2)nc(N2CCOCC2)n1 [ZSTK474] (100 nM)	83.4
CS(=O)(=O)OCCCCOS(C)(=O)=O [Busulfan] (1000 nM)	103
COC(=O)C[C@](O)(CCCC(C)(C)O)C(=O)O[C@@H]1C(OC)=C[C@]23CCCN2CCc2cc4c(cc2[C@H]13)OCO4 [Omacetaxine] (100 nM)	31
Cn1cnc2c(F)c(Nc3ccc(Br)cc3F)c(C(=O)NOCCO)cc21 [MEK-162] (10 nM)	88.9
C[C@@H]1CCN(C(=O)CC#N)C[C@@H]1N(C)c1ncnc2[nH]ccc12 [Tofacitinib] (50 nM)	104
COc1cccc2c1C(=O)c1c(O)c3c(c(O)c1C2=O)C[C@@](O)(C(C)=O)C[C@@H]3O[C@H]1C[C@H](N)[C@H](O)[C@H](C)O1 [Daunorubicin] (10 nM)	96.5

Test system: MFM-223
Assay: as above
Settings: incubation time: 72 h
Method: as §1

Compound	normalised response [%]
CN1CCN(c2ccc3nc(-c4c(N)c5c(F)cccc5[nH]c4=O)[nH]c3c2)CC1 [Dovitinib] (100 nM)	100
COc1ccc(C2=N[C@@H](c3ccc(Cl)cc3)[C@@H](c3ccc(Cl)cc3)N2C(=O)N2CCNC(=O)C2)c(OC(C)C)c1 [Nutlin-3] (100 nM)	102
FC(F)c1nc2ccccc2n1-c1nc(N2CCOCC2)nc(N2CCOCC2)n1 [ZSTK474] (100 nM)	97
CS(=O)(=O)OCCCCOS(C)(=O)=O [Busulfan] (1000 nM)	106
COC(=O)C[C@](O)(CCCC(C)(C)O)C(=O)O[C@@H]1C(OC)=C[C@]23CCCN2CCc2cc4c(cc2[C@H]13)OCO4 [Omacetaxine] (100 nM)	55.4
Cn1cnc2c(F)c(Nc3ccc(Br)cc3F)c(C(=O)NOCCO)cc21 [MEK-162] (10 nM)	99.4
C[C@@H]1CCN(C(=O)CC#N)C[C@@H]1N(C)c1ncnc2[nH]ccc12 [Tofacitinib] (50 nM)	110
COc1cccc2c1C(=O)c1c(O)c3c(c(O)c1C2=O)C[C@@](O)(C(C)=O)C[C@@H]3O[C@H]1C[C@H](N)[C@H](O)[C@H](C)O1 [Daunorubicin] (10 nM)	105

Test system: CAL-148
Assay: as above
Settings: incubation time: 72 h
Method: as §1

Compound	normalised response [%]
CN1CCN(c2ccc3nc(-c4c(N)c5c(F)cccc5[nH]c4=O)[nH]c3c2)CC1 [Dovitinib] (100 nM)	99.7
COc1ccc(C2=N[C@@H](c3ccc(Cl)cc3)[C@@H](c3ccc(Cl)cc3)N2C(=O)N2CCNC(=O)C2)c(OC(C)C)c1 [Nutlin-3] (100 nM)	115
FC(F)c1nc2ccccc2n1-c1nc(N2CCOCC2)nc(N2CCOCC2)n1 [ZSTK474] (100 nM)	94.7
CS(=O)(=O)OCCCCOS(C)(=O)=O [Busulfan] (1000 nM)	107
COC(=O)C[C@](O)(CCCC(C)(C)O)C(=O)O[C@@H]1C(OC)=C[C@]23CCCN2CCc2cc4c(cc2[C@H]13)OCO4 [Omacetaxine] (100 nM)	40.9
Cn1cnc2c(F)c(Nc3ccc(Br)cc3F)c(C(=O)NOCCO)cc21 [MEK-162] (10 nM)	101
C[C@@H]1CCN(C(=O)CC#N)C[C@@H]1N(C)c1ncnc2[nH]ccc12 [Tofacitinib] (50 nM)	114
COc1cccc2c1C(=O)c1c(O)c3c(c(O)c1C2=O)C[C@@](O)(C(C)=O)C[C@@H]3O[C@H]1C[C@H](N)[C@H](O)[C@H](C)O1 [Daunorubicin] (10 nM)	99.3

Test system: SK-BR-3
Assay: as above
Settings: incubation time: 72 h
Method: as §1

Compound	normalised response [%]
CN1CCN(c2ccc3nc(-c4c(N)c5c(F)cccc5[nH]c4=O)[nH]c3c2)CC1 [Dovitinib] (100 nM)	94.7
COc1ccc(C2=N[C@@H](c3ccc(Cl)cc3)[C@@H](c3ccc(Cl)cc3)N2C(=O)N2CCNC(=O)C2)c(OC(C)C)c1 [Nutlin-3] (100 nM)	104
FC(F)c1nc2ccccc2n1-c1nc(N2CCOCC2)nc(N2CCOCC2)n1 [ZSTK474] (100 nM)	72.9
CS(=O)(=O)OCCCCOS(C)(=O)=O [Busulfan] (1000 nM)	110
COC(=O)C[C@](O)(CCCC(C)(C)O)C(=O)O[C@@H]1C(OC)=C[C@]23CCCN2CCc2cc4c(cc2[C@H]13)OCO4 [Omacetaxine] (100 nM)	44.9
Cn1cnc2c(F)c(Nc3ccc(Br)cc3F)c(C(=O)NOCCO)cc21 [MEK-162] (10 nM)	101
C[C@@H]1CCN(C(=O)CC#N)C[C@@H]1N(C)c1ncnc2[nH]ccc12 [Tofacitinib] (50 nM)	104
COc1cccc2c1C(=O)c1c(O)c3c(c(O)c1C2=O)C[C@@](O)(C(C)=O)C[C@@H]3O[C@H]1C[C@H](N)[C@H](O)[C@H](C)O1 [Daunorubicin] (10 nM)	112

Test system: BT-474
Assay: as above
Settings: incubation time: 72 h
Method: as §1

Compound	normalised response [%]
CN1CCN(c2ccc3nc(-c4c(N)c5c(F)cccc5[nH]c4=O)[nH]c3c2)CC1 [Dovitinib] (100 nM)	104
COc1ccc(C2=N[C@@H](c3ccc(Cl)cc3)[C@@H](c3ccc(Cl)cc3)N2C(=O)N2CCNC(=O)C2)c(OC(C)C)c1 [Nutlin-3] (100 nM)	101
FC(F)c1nc2ccccc2n1-c1nc(N2CCOCC2)nc(N2CCOCC2)n1 [ZSTK474] (100 nM)	85.3
CS(=O)(=O)OCCCCOS(C)(=O)=O [Busulfan] (1000 nM)	98.9
COC(=O)C[C@](O)(CCCC(C)(C)O)C(=O)O[C@@H]1C(OC)=C[C@]23CCCN2CCc2cc4c(cc2[C@H]13)OCO4 [Omacetaxine] (100 nM)	74.6
Cn1cnc2c(F)c(Nc3ccc(Br)cc3F)c(C(=O)NOCCO)cc21 [MEK-162] (10 nM)	103
